Reference: US5294611A, “Angiotensin II receptor blocking 2,3,6 substituted quinazolinones” (American Cyanamid Company, priority 1993, dated 1994)
Read-outs that look alike come from different tables or passages of the source.

System: Angiotensin II (AII) vasopressor response
Test: AII Challenge: antagonism of angiotensin II vasopressor response in conscious spontaneously hypertensive rats
Format: in vivo, rat (male okamoto-Aoki SHR)
Details: for inhibition in vivo at 10 mg/kg / inhibition in vivo at 5 mg/kg: Rattus norvegicus; for inhibition in vivo at 10 mg/kg: iv; for inhibition in vivo at 10 mg/kg / inhibition in vivo at 5 mg/kg / Average Change: SHR n=2; for inhibition in vivo at 5 mg/kg: po, read-out: Inhibition; for Change: single SHR
Method in brief: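 Read-out is the systolic pressure increase (mmHg) to i.v. angiotensin II, 0.05 and 0.1 ug/kg, compared pre- and post-dose in restrained, conscious spontaneously hypertensive male rats. Compounds administered orally, i.p. or i.v.; arterial cannula inserted under local anaesthesia.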

[1] = 5 mg/kg P.O., AII 0.05 mcg/kg IV, 90 min post dose
[2] = 10 mg/kg I.V., AII 0.05 mcg/kg IV, 30 min post dose
[3] = 10 mg/kg I.V., AII 0.05 mcg/kg IV, 90 min post dose
[4] = 10 mg/kg I.V., AII 0.1 mcg/kg IV, 180 min post dose
[5] = 10 mg/kg I.V., AII dose not given, 120 min post dose

CCCCc1nc2ccc([C@@H]3[C@H]4C(=O)CCC[C@H]4ON3C)cc2c(=O)n1Cc1ccc(-c2ccccc2-c2nnn[nH]2)cc1 (relative stereo) [Example 49] was tested, and the inhibition in vivo at 10 mg/kg (0.5 h, 10 mg/kg I.V., AII 0.05 mcg/kg IV, 30 min post dose) was 100%, the inhibition in vivo at 10 mg/kg (0.5 h, 10 mg/kg I.V., AII 0.1 mcg/kg IV, 30 min post dose) was 88% and the inhibition in vivo at 10 mg/kg (1 h, 10 mg/kg I.V., AII 0.01 mcg/kg IV (so in the source), 60 min post dose) was 86%. For the same compound, the inhibition in vivo at 10 mg/kg (1 h, 10 mg/kg I.V., AII 0.05 mcg/kg IV, 60 min post dose) was 97%, the inhibition in vivo at 10 mg/kg (2 h, 10 mg/kg I.V., AII 0.05 mcg/kg IV, 120 min post dose) was 86% and the inhibition in vivo at 10 mg/kg (2 h, 10 mg/kg I.V., AII dose not given, 120 min post dose) was 81%. The inhibition in vivo at 10 mg/kg (3 h, 10 mg/kg I.V., AII 0.05 mcg/kg IV, 180 min post dose) was 67%, the inhibition in vivo at 10 mg/kg (3 h, 10 mg/kg I.V., AII 0.1 mcg/kg IV, 180 min post dose) was 63% and the inhibition in vivo at 10 mg/kg ([…], 10 mg/kg I.V., AII 0.05 mcg/kg IV, 90 min post dose) was 87%. For the same compound, the inhibition in vivo at 10 mg/kg ([…], 10 mg/kg I.V., AII 0.1 mcg/kg IV, 90 min post dose) was 86%, the inhibition in vivo at 5 mg/kg (0.5 h, 5 mg/kg P.O., AII 0.05 mcg/kg IV, 30 min post dose) was 37% and the inhibition in vivo at 5 mg/kg (0.5 h, 5 mg/kg P.O., AII 0.1 mcg/kg IV, 30 min post dose) was 38%. It also gave an inhibition in vivo at 5 mg/kg (1 h, 5 mg/kg P.O., AII 0.05 mcg/kg IV, 60 min post dose) of 59%, an inhibition in vivo at 5 mg/kg (1 h, 5 mg/kg P.O., AII 0.1 mcg/kg IV, 60 min post dose) of 29% and an inhibition in vivo at 5 mg/kg (2 h, 5 mg/kg P.O., AII 0.05 mcg/kg IV, 120 min post dose) of 41%. For the same compound, the inhibition in vivo at 5 mg/kg (2 h, 5 mg/kg P.O., AII 0.1 mcg/kg IV, 120 min post dose) was 55%, the inhibition in vivo at 5 mg/kg (3 h, 5 mg/kg P.O., AII 0.05 mcg/kg IV, 180 min post dose) was 63% and the inhibition in vivo at 5 mg/kg (3 h, 5 mg/kg P.O., AII 0.1 mcg/kg IV, 180 min post dose) was 35%. It also gave an inhibition in vivo at 5 mg/kg (4 h, 5 mg/kg P.O., AII 0.05 mcg/kg IV, 240 min post dose) of 34%, an inhibition in vivo at 5 mg/kg (4 h, 5 mg/kg P.O., AII 0.1 mcg/kg IV, 240 min post dose) of 36% and an inhibition in vivo at 5 mg/kg ([…], 5 mg/kg P.O., AII 0.05 mcg/kg IV, 90 min post dose) of 56%. The inhibition in vivo at 5 mg/kg ([…], 5 mg/kg P.O., AII 0.1 mcg/kg IV, 90 min post dose) was 59%, the “Average Change” value (5 mg/kg P.O., AII 0.05 mcg/kg IV, 30 min post dose) was 21.5 mmHg and the “Average Change” value (5 mg/kg P.O., AII 0.05 mcg/kg IV, 60 min post dose) was 14 mmHg. The “Average Change” value [1] was 15 mmHg, the “Average Change” value (5 mg/kg P.O., AII 0.05 mcg/kg IV, 120 min post dose) was 20 mmHg and the “Average Change” value (5 mg/kg P.O., AII 0.05 mcg/kg IV, 180 min post dose) was 12.5 mmHg. The “Average Change” value (5 mg/kg P.O., AII 0.05 mcg/kg IV, 240 min post dose) was 22.5 mmHg, the “Average Change” value (5 mg/kg P.O., AII 0.1 mcg/kg IV, 30 min post dose) was 26.5 mmHg and the “Average Change” value (5 mg/kg P.O., AII 0.1 mcg/kg IV, 60 min post dose) was 30 mmHg. For the same compound, the “Average Change” value (5 mg/kg P.O., AII 0.1 mcg/kg IV, 90 min post dose) was 17.5 mmHg, the “Average Change” value (5 mg/kg P.O., AII 0.1 mcg/kg IV, 120 min post dose) was 19 mmHg and the “Average Change” value (5 mg/kg P.O., AII 0.1 mcg/kg IV, 180 min post dose) was 27.5 mmHg. For the same compound, the “Average Change” value (5 mg/kg P.O., AII 0.1 mcg/kg IV, 240 min post dose) was 27 mmHg, the “Average Change” value (10 mg/kg I.V., AII 0.01 mcg/kg IV (so in the source), 60 min post dose) was 7.5 mmHg and the “Average Change” value [2] was 0 mmHg. For the same compound, the “Average Change” value (10 mg/kg I.V., AII 0.05 mcg/kg IV, 60 min post dose) was 1 mmHg, the “Average Change” value [3] was 5 mmHg and the “Average Change” value (10 mg/kg I.V., AII 0.05 mcg/kg IV, 120 min post dose) was 5.5 mmHg. For the same compound, the “Average Change” value (10 mg/kg I.V., AII 0.05 mcg/kg IV, 180 min post dose) was 12.5 mmHg, the “Average Change” value (10 mg/kg I.V., AII 0.1 mcg/kg IV, 30 min post dose) was 6.5 mmHg and the “Average Change” value (10 mg/kg I.V., AII 0.1 mcg/kg IV, 90 min post dose) was 7.5 mmHg. The “Average Change” value [4] was 20 mmHg, the “Average Change” value [5] was 10 mmHg and the Change [1] was 15 mmHg. For the same compound, the Change [2] was 0 mmHg, the Change [3] was 5 mmHg and the Change [4] was 20 mmHg. The Change [5] was 10 mmHg.
